# Results taken from ChEMBL document CHEMBL1806473, “Structure-based optimization of click-based histone deacetylase inhibitors” (Eur J Med Chem, 2011).
# Biological target: Histone deacetylase
# Test: Inhibition of HDAC in human HeLa cells using Ac-Arg-Gly-Lys(Ac)-AMC as fluorescent substrate after 20 mins by fluorescence assay
# Type: cell-based
row,Structure (SMILES),IC50 [µM]
1,CCCC(/C=C/c1ccccc1)n1cc(/C=C/C(=O)NO)nn1 (stereo not drawn),0.132
2,CCCCC(/C=C/c1ccccc1)n1cc(/C=C/C(=O)NO)nn1 (stereo not drawn),0.137
3,O=C(/C=C/c1cn(C(/C=C/c2ccccc2)C2CCC2)nn1)NO (stereo not drawn),0.054
4,O=C(/C=C/c1cn(C(/C=C/c2ccccc2)C2CCCC2)nn1)NO (stereo not drawn),0.115
5,C=CCC(/C=C/c1ccccc1)n1cc(/C=C/C(=O)NO)nn1 (stereo not drawn),0.09
6,O=C(/C=C/c1cn(C(/C=C/c2ccccc2)Cc2nccs2)nn1)NO (stereo not drawn),0.171
7,O=C(/C=C/c1cn(C(/C=C/c2ccccc2)Cc2cccc3ccccc23)nn1)NO (stereo not drawn),0.111

# Next, values leading:
row,IC50 [µM],Structure (SMILES)
1,0.055,CCC(/C=C/c1ccccc1)n1cc(/C=C/C(=O)NO)nn1 (stereo not drawn)
2,0.018,CC(C)(C)C(/C=C/c1ccccc1)n1cc(/C=C/C(=O)NO)nn1 (stereo not drawn)
3,0.838,CC(C)CC(/C=C/c1ccccc1)n1cc(/C=C/C(=O)NO)nn1 (stereo not drawn)
4,0.403,O=C(/C=C/c1cn(C(/C=C/c2ccccc2)Cc2cccc(-c3ccccc3)c2)nn1)NO (stereo not drawn)
5,0.51,O=C(/C=C/c1cn(C(/C=C/c2ccccc2)Cc2cccc(Oc3ccccc3)c2)nn1)NO (stereo not drawn)
6,0.094,O=C(/C=C/c1cn(C(/C=C/c2ccccc2)Cc2ccc3ccccc3c2)nn1)NO (stereo not drawn)
